Results as given in patent US10111874B2, “Combination therapies for treatment of cancer” (Araxes Pharma LLC, priority 2014, dated 2018).

Biological target: T1, KRAS G12C 1-169, his-tagged protein, GDP-loaded (Homo sapiens, UniProt P01116, G12C)
T1 construct: KRAS G12C 1-169, his-tagged protein, GDP-loaded
Test: Biochemical assay: covalent binding to KRAS G12C analyzed by mass spectrometry
Conditions: compounds 247-342, measured at 30 min
Description: Compounds were tested for activity as follows:
Compounds were diluted to 50× final test concentration in DMSO in 96-well storage plates. […] Reactions were mixed carefully and thoroughly by pipetting up/down with a 200 μl multi-channel pipettor. […] 5 μl of 2% formic acid (Fisher cat#A117) in DI H2O was then added to each well followed by mixing with a pipette. The plate was then resealed with aluminum seal and stored on dry ice until analyzed as described below.
The above described assays were analyzed by mass spectrometry according to the following procedure:
The MS instrument is set to positive polarity, 2 GHz resolution, and low mass (1700) mode and allowed to equilibrate for 30 minutes. The instrument is then calibrated, switched to acquisition mode and the appropriate method loaded.
After another 30 minute equilibration time, a blank batch (i.e., buffer) is run to ensure equipment is operating properly. The samples are thawed at 37° C. for 10 minutes, briefly centrifuged, and transfer to the bench top. Wells A1 and H12 are spiked with 1 μL 500 μM internal standard peptide, and the plates centrifuged at 2000×g for 5 minutes. The method is then run and masses of each individual well recorded.
The masses (for which integration data is desired) for each well are pasted into the platemap and exported from the analysis. Masses for the internal standards are exported as well. The data at 50 ppm is extracted for the +19 charge state, and identity of well A1 is assigned using the internal standard spike and integrated. Peak data is exported as a TOF list and the above steps are repeated individually, for the +20, 21, 22, 23, 24, and 25 charge states.

T1 sequence (P01116 1-169 isoform P01116-2 G12C): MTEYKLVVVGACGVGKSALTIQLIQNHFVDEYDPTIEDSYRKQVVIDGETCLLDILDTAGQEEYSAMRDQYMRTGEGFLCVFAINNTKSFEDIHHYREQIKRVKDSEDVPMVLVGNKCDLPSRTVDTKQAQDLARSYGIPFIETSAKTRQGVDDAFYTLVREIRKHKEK

Row | SMILES | Binding %
1 | C=CC(=O)N1CCN(c2nc(OCCN(C)C)nc3c(F)c(-c4c(C)ccc5[nH]ncc45)c(Cl)cc23)CC1 [Compound 323, 1-(4-(6-chloro-2-(2-(dimethylamino)ethoxy)-8-fluoro-7-(5-methyl-1H-indazol-4-yl)quinazolin-4-yl)piperazin-1-yl)prop-2-en-1-one] | +++ (+++indicates binding activity greater than 50% and up to 75%)
2 | C=CC(=O)N1CCN(c2ncnc3c(F)c(-c4cccc5c(C)n[nH]c45)c(Cl)cc23)CC1 [Compound 324, 1-(4-(6-chloro-8-fluoro-7-(3-methyl-1H-indazol-7-yl)quinazolin-4-yl)piperazin-1-yl)prop-2-en-1-one] | + (+indicates binding activity from 5% to 25%)
3 | CN(C)C/C=C/C(=O)N1CCN(c2ncnc3c(F)c(-c4cc(O)cc5ccccc45)c(Cl)cc23)CC1 [Compound 325, (E)-1-(4-(6-chloro-8-fluoro-7-(3-hydroxynaphthalen-1-yl)quinazolin-4-yl)piperazin-1-yl)-4-(dimethylamino)but-2-en-1-one] | ++ (++indicates binding activity greater than 25% and up to 50%)
4 | C=CC(=O)N1CCN(c2nc(=O)[nH]c3cc(-c4c(C)ccc5[nH]ncc45)c(Cl)cc23)CC1 [Compound 326, 4-(4-acryloylpiperazin-1-yl)-6-chloro-7-(5-methyl-1H-indazol-4-yl)quinazolin-2(1H)-one] | + (+indicates binding activity from 5% to 25%)
5 | C=CC(=O)N1CCN(c2ncnc3c(F)c(-c4c(C)ccc5[nH]ncc45)c(Cl)cc23)CC1C (centres unmarked) [Compound 327, 1-(4-(6-chloro-8-fluoro-7-(5-methyl-1H-indazol-4-yl)quinazolin-4-yl)-2-methylpiperazin-1-yl)prop-2-en-1-one] | ++ (++indicates binding activity greater than 25% and up to 50%)
6 | C/C=C/C(=O)N1CCN(c2ncnc3c(F)c(-c4cc(O)cc5ccccc45)c(Cl)cc23)CC1C (centres unmarked) [Compound 328, (E)-1-(4-(6-chloro-8-fluoro-7-(3-hydroxynaphthalen-1-yl)quinazolin-4-yl)-2-methylpiperazin-1-yl)but-2-en-1-one] | + (+indicates binding activity from 5% to 25%)
7 | C=CC(=O)N1CCN(c2nc(OCCCN(C)C)nc3cc(-c4c(C)ccc5[nH]ncc45)c(Cl)cc23)CC1 [Compound 329, 1-(4-(6-chloro-2-(3-(dimethylamino)propoxy)-7-(5-methyl-1H-indazol-4-yl)quinazolin-4-yl)piperazin-1-yl)prop-2-en-1-one] | ++ (++indicates binding activity greater than 25% and up to 50%)
8 | C=CC(=O)N1CCN(c2nc(NC3CCOC3)nc3cc(-c4c(C)ccc5[nH]ncc45)c(Cl)cc23)CC1 (centres unmarked) [Compound 330, 1-(4-(6-chloro-7-(5-methyl-1H-indazol-4-yl)-2-(tetrahydrofuran-3-ylamino)quinazolin-4-yl)piperazin-1-yl)prop-2-en-1-one] | ++ (++indicates binding activity greater than 25% and up to 50%)
9 | C=CC(=O)N1CCN(c2ncnc3c(F)c(-c4c(F)ccc5[nH]ncc45)c(Cl)cc23)CC1 [Compound 331, 1-(4-(6-chloro-8-fluoro-7-(5-fluoro-1H-indazol-4-yl)quinazolin-4-yl)piperazin-1-yl)prop-2-en-1-one] | ++ (++indicates binding activity greater than 25% and up to 50%)
10 | C=CC(=O)N1CCN(c2nc(-c3cncs3)nc3c(F)c(-c4c(C)ccc5[nH]ncc45)c(Cl)cc23)CC1 [Compound 332, 1-(4-(6-chloro-8-fluoro-7-(5-methyl-1H-indazol-4-yl)-2-(thiazol-5-yl)quinazolin-4-yl)piperazin-1-yl)prop-2-en-1-one] | ++ (++indicates binding activity greater than 25% and up to 50%)
11 | Cc1ccc2[nH]ncc2c1-c1c(Cl)cc2c(N3CCN(C(=O)/C=C/CN(C)C)CC3)nc(-c3cncs3)nc2c1F [Compound 333, (E)-1-(4-(6-chloro-8-fluoro-7-(5-methyl-1H-indazol-4-yl)-2-(thiazol-5-yl)quinazolin-4-yl)piperazin-1-yl)-4-(dimethylamino)but-2-en-1-one] | + (+indicates binding activity from 5% to 25%)
